Source: US5739104A, “Anti-fungal agents” (Schering Corporation, priority 1995, dated 1998)
Starred links: 1 amine or outer side, 2 acyl side, 3 side chain; linkers in the order of their positions; H or OH if unused. Non-standard residues stand in square brackets, D forms with d. Residues, ends and D or L forms follow the SMILES beside them. X1 = O=C([C@H](O[*:1])C1CCCCC1)[*:2]; X2 = O=C([C@H](O[*:1])c1ccccc1)[*:2]; X3 = O=C([C@H](O[*:1])C1CCCC1)[*:2]; X4 = O=C([C@@H](O[*:1])C1CC1)[*:2]; NMeF = CN[C@@H](Cc1ccccc1)C(=O)O; NMeT = CN[C@H](C(=O)O)[C@@H](C)O; aIle = CC[C@@H](C)[C@H](N)C(=O)O; NMeV = CN[C@H](C(=O)O)C(C)C; dHiv = CC(C)[C@@H](O)C(=O)O; Pip = O=C(O)[C@@H]1CCCCN1; Aze = O=C(O)[C@@H]1CCN1

Assays:
C. Albicans, C-43 = assay: In vivo anti-fungal activity, C. albicans infection study in mice; settings: once a day for 4 days starting 4 hours post infection
Description: In vivo anti-fungal activity for compounds of formula I of the invention was determined by using the test protocol set forth in Cacciapuoti et al, ANTIMICROBIAL AGENTS AND CHEMOTHERAPY, Vol.36, No. 1, January 1992, p. 64-67, which is hereby incorporated by reference. The specific test protocol used to obtain the data given below, appears in the just above mentioned article at pages 64 and 65 under the heading "C. albicans infection studies". Data obtained from this test protocol are as follows:
The numbering for the compounds tested is the same as the numbering used for the compounds in the rest of the application. The mice used in the above experiment were Charles River, white, male, mice weighing between 18 and 20 grams. The organism used to infect the mice was C. Albicans, C-43, 1XE6 CFU/mice, 0.1 M1 IV. The treatment was once a day for 4 days starting 4 hours post infection for those compounds which have a * next to them. For those compounds which have no * next to them, the treatment was once a day for 4 days starting 24 hours post infection. The dose was 0.1 ml/mouse in either case. The vehicle used with the compounds was Tween 80:Ethanol:PBS (1:9:40 or 2%:18%:80%)

[1] = tested on: Candida albicans, Candida tropicalis, Candida stellatoidea, Candida parapsilosis, Candida krusei; assay: In vitro anti-fungal microtiter minimum inhibitory concentration (MIC) test, geometric mean over Candida strains; type: cell-based
Description: The geometric mean is taken from the following strains
Candida stellatoidea C184
The minimum inhibitory concentrations (GMMICs-R(μg/ml) for Ca (SDB) Ca (EMEM) (Derm) and (Asp) for the compounds of formula I of the invention are as shown in Table 2 above.
The minimum inhibitory concentrations were determined in accordance with the procedure set forth just below.
In vitro anti-fungal activity was determined in microtiter minimum inhibitory concentration (MIC) tests using Yeast Nitrogen Broth (YNB without amino acids, Difco., Detroit, Mich.) at pH 5.4. Yeasts were grown overnight in Sabouraud Dextrose Broth at 28° C. with shaking, and concentrations adjusted in sterile saline using a spectrophoptometer at 540 mμ. Compounds were dissolved in various vehicles and diluted in media to twice the final concentrations. The Cetus Pro/Pette system was used to serially dilute 50 μl in round bottom 96 well plates (Falcon, Lincoln Park, N.J.). The turbidometrically adjusted yeast suspensions were diluted 1:3,000 in YNB. These dilutions when added to the wells, produced a final inoculum of 3×10^3 /ml. Plates were incubated at 37° C. for 48 hours. MICs were defined as the lowest concentrations of compound that prevented visible growth. MICs were taken against the following organisms and expressed in the table above as the geometric mean.

[2] = EMEM, geometric mean over 14 Candida strains, 37° C., 48 hours
[3] = SDB, geometric mean over 14 Candida strains, 37° C., 48 hours

In the case of `CC[C@@H](C)[C@@H]1NC(=O)[C@@H]2CCCN2C(=O)[C@H](Cc2ccccc2)N(C)C(=O)[C@H](Cc2ccccc2)NC(=O)[C@H](C(C)C)N(C)C(=O)[C@@H](C2CCCCC2)OC(=O)[C@H]([C@@H](C)O)N(C)C(=O)[C@H](CC(C)C)NC(=O)[C@H](C(C)C)N(C)C1=O` [Compound 1, Cyclo-depsi-N-methyl-threonyl-(2-hydroxyl-2-cyclohexylacetyl)-N-methylvalyl-phenylanalyl-N-methylphenylanalyl-prolyl-allo-isoleucyl-N-methylvalyl-leucine] (cyclo(F[NMeF]P[aIle][NMeV]L[NMeT][X1][NMeV])), the “% Survival” value (C. Albicans, C-43; 5 MPK IV) is reported as 60%, the “CFUs (GM)” value (C. Albicans, C-43; 5 MPK IV) is reported as 6.90 and the “% Survival” value (C. Albicans, C-43; 5 MPK PO) is reported as 70%. For the same compound, the “CFUs (GM)” value (C. Albicans, C-43; 5 MPK PO) was 6.68, the “% Survival” value (C. Albicans, C-43; 10 MPK IV) was 70% and the “CFUs (GM)” value (C. Albicans, C-43; 10 MPK IV) was 7.11. For the same compound, the “% Survival” value (C. Albicans, C-43; 10 MPK PO) was 100%, the “CFUs (GM)” value (C. Albicans, C-43; 10 MPK PO) was 6.01 and the “% Survival” value (C. Albicans, C-43; 20 MPK PO) was 100%. The “CFUs (GM)” value (C. Albicans, C-43; 20 MPK PO) was 6.38, the “% Survival” value (C. Albicans, C-43; 40 MPK PO) was 100% and the “CFUs (GM)” value (C. Albicans, C-43; 40 MPK PO) was 6.52. The “Geo. Mean MICs (μg/ml) Ca. (EMEM)” value [1, 2] was 0.288 µg/mL and the “Geo. Mean MICs (μg/ml) Ca. (SDB)” value [1, 3] was 0.018 µg/mL.
In the case of `CC[C@@H](C)[C@@H]1NC(=O)[C@@H]2CCN2C(=O)[C@H](Cc2ccccc2)N(C)C(=O)[C@H](Cc2ccccc2)NC(=O)[C@H](C(C)C)N(C)C(=O)[C@@H](C2CCCCC2)OC(=O)[C@H]([C@@H](C)O)N(C)C(=O)[C@H](CC(C)C)NC(=O)[C@H](C(C)C)N(C)C1=O` [Compound 2, Cyclo-depsi-N-methyl-threonyl-(2-hydroxy-2-cyclohexylacetyl)-N-methylvalyl-phenylalanyl-N-methylphenylalanyl-azetidinyl-allo-isoleucyl-N-methylvalyl-leucine] (cyclo([Aze][aIle][NMeV]L[NMeT][X1][NMeV]F[NMeF])), the “Geo. Mean MICs (μg/ml) Ca. (EMEM)” value [1, 2] is reported as 0.353 µg/mL and the “Geo. Mean MICs (μg/ml) Ca. (SDB)” value [1, 3] is reported as 0.062 µg/mL.
With `CC[C@@H](C)[C@@H]1NC(=O)[C@@H]2CCCN2C(=O)[C@H](Cc2ccccc2)N(C)C(=O)[C@H](Cc2ccccc2)NC(=O)[C@H](C(C)C)N(C)C(=O)[C@@H](C(C)C)OC(=O)[C@H]([C@@H](C)O)N(C)C(=O)[C@H](CC(C)C)NC(=O)[C@H](C(C)C)N(C)C1=O` [Compound 4] (cyclo(F[NMeF]P[aIle][NMeV]L[NMeT][dHiv][NMeV])) the “Geo. Mean MICs (μg/ml) Ca. (EMEM)” value ([1]; 48 h) was 0.500 µg/mL and the “Geo. Mean MICs (μg/ml) Ca. (SDB)” value ([1]; 48 h) was 0.032 µg/mL.
With `CC[C@@H](C)[C@@H]1NC(=O)[C@@H]2CCN2C(=O)[C@H](Cc2ccccc2)N(C)C(=O)[C@H](Cc2ccccc2)NC(=O)[C@H](C(C)C)N(C)C(=O)[C@@H](C2CCCC2)OC(=O)[C@H]([C@@H](C)O)N(C)C(=O)[C@H](CC(C)C)NC(=O)[C@H](C(C)C)N(C)C1=O` [Compound 5] (cyclo([Aze][aIle][NMeV]L[NMeT][X3][NMeV]F[NMeF])) the “Geo. Mean MICs (μg/ml) Ca. (EMEM)” value ([1]; 48 h) was 0.195 µg/mL and the “Geo. Mean MICs (μg/ml) Ca. (SDB)” value ([1]; 48 h) was 0.015 µg/mL.
In the case of `CC[C@@H](C)[C@@H]1NC(=O)[C@@H]2CCCN2C(=O)[C@H](Cc2ccccc2)N(C)C(=O)[C@H](Cc2ccccc2)NC(=O)[C@H](C(C)C)N(C)C(=O)[C@@H](C2CCCC2)OC(=O)[C@H]([C@@H](C)O)N(C)C(=O)[C@H](CC(C)C)NC(=O)[C@H](C(C)C)N(C)C1=O` [Compound 6] (cyclo(F[NMeF]P[aIle][NMeV]L[NMeT][X3][NMeV])), the “Geo. Mean MICs (μg/ml) Ca. (EMEM)” value ([1]; 48 h) is reported as 0.500 µg/mL and the “Geo. Mean MICs (μg/ml) Ca. (SDB)” value ([1]; 48 h) is reported as 0.090 µg/mL.
In the case of `CC[C@@H](C)[C@@H]1NC(=O)[C@@H]2CCCN2C(=O)[C@H](Cc2ccccc2)N(C)C(=O)[C@H](Cc2ccccc2)NC(=O)[C@H](C(C)C)N(C)C(=O)[C@@H](c2ccccc2)OC(=O)[C@H]([C@@H](C)O)N(C)C(=O)[C@H](CC(C)C)NC(=O)[C@H](C(C)C)N(C)C1=O` [Compound 7] (cyclo(F[NMeF]P[aIle][NMeV]L[NMeT][X2][NMeV])), the “Geo. Mean MICs (μg/ml) Ca. (EMEM)” value ([1]; 48 h) is reported as 0.710 µg/mL and the “Geo. Mean MICs (μg/ml) Ca. (SDB)” value ([1]; 48 h) is reported as 0.170 µg/mL.
With `CC[C@@H](C)[C@@H]1NC(=O)[C@@H]2CCCN2C(=O)[C@H](Cc2ccccc2)N(C)C(=O)[C@H](Cc2ccccc2)NC(=O)[C@H](C(C)C)N(C)C(=O)[C@H](C2CC2)OC(=O)[C@H]([C@@H](C)O)N(C)C(=O)[C@H](CC(C)C)NC(=O)[C@H](C(C)C)N(C)C1=O` [Compound 8] (cyclo([X4][NMeV]F[NMeF]P[aIle][NMeV]L[NMeT])) the “Geo. Mean MICs (μg/ml) Ca. (EMEM)” value ([1]; 48 h) was 0.780 µg/mL and the “Geo. Mean MICs (μg/ml) Ca. (SDB)” value ([1]; 48 h) was 0.133 µg/mL.
In the case of `CC[C@@H](C)[C@@H]1NC(=O)[C@@H]2CCCCN2C(=O)[C@H](Cc2ccccc2)N(C)C(=O)[C@H](Cc2ccccc2)NC(=O)[C@H](C(C)C)N(C)C(=O)[C@@H](C2CCCCC2)OC(=O)[C@H]([C@@H](C)O)N(C)C(=O)[C@H](CC(C)C)NC(=O)[C@H](C(C)C)N(C)C1=O` [Compound 9] (cyclo(F[NMeF][Pip][aIle][NMeV]L[NMeT][X1][NMeV])), the “Geo. Mean MICs (μg/ml) Ca. (EMEM)” value ([1]; 48 h) is reported as 0.475 µg/mL and the “Geo. Mean MICs (μg/ml) Ca. (SDB)” value ([1]; 48 h) is reported as 0.290 µg/mL.
